Assay results published in ChEMBL document CHEMBL4330058, “Discovery of novel anti-angiogenesis agents. Part 10: Multi-target inhibitors of VEGFR-2, Tie-2 and EphB4 incorporated with 1,2,3-triazol” (Eur J Med Chem, 2019).

Columns and labels:
EA.hy 926 = assay: Anti-angiogenic activity against human EAhy926 after 24 hrs by CCK-8 assay; assay type: functional, cell-based; conditions: EA.hy 926, 24 h
[1] = biological target: Vascular endothelial growth factor receptor 2 (Homo sapiens, UniProt P35968); assay: Inhibition of VEGFR2 (unknown origin) after 1 hr by ADP-Glo reagent based luminescent assay
Sequence of Vascular endothelial growth factor receptor 2 (P35968 whole entry): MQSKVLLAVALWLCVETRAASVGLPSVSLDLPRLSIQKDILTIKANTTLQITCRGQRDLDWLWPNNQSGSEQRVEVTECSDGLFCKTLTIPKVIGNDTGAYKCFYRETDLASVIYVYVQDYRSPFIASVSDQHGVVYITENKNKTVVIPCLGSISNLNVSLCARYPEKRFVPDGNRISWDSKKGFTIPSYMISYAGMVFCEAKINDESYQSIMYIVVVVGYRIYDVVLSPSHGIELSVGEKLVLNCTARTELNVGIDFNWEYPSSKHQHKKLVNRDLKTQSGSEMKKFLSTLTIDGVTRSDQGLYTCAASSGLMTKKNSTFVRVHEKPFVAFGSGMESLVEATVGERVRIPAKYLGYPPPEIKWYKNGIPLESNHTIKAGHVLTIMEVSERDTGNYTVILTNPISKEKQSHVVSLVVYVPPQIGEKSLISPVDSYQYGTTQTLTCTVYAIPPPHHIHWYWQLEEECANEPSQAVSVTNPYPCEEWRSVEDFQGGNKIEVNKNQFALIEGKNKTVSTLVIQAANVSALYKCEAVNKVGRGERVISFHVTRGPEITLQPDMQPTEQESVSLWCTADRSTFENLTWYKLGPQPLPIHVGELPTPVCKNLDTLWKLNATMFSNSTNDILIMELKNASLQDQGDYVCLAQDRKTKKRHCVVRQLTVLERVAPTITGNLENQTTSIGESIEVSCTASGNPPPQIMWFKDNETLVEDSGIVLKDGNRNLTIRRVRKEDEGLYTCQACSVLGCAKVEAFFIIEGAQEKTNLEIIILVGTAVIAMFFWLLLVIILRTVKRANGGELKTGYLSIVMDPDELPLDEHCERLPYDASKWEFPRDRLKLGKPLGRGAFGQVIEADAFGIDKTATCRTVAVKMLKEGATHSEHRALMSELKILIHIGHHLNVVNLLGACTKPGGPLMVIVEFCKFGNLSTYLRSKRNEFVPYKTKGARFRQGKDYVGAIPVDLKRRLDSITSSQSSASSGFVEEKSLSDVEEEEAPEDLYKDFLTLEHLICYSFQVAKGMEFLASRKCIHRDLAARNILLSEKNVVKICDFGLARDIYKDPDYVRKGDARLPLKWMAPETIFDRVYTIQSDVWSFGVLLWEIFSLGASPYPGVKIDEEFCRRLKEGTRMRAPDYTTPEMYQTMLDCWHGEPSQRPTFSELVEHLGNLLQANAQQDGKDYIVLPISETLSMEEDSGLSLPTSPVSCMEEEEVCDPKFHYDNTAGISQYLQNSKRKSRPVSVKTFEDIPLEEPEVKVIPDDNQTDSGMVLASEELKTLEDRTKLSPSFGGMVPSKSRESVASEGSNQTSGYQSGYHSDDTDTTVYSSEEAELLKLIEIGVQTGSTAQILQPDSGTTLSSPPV

LoVo = assay: Antiproliferative activity against human LoVo cells
A549 = assay: Antiproliferative activity against human A549 cells
A-431 = assay: Antiproliferative activity against human A431 cells
MCF7 = assay: Antiproliferative activity against human MCF7 cells
SMMC-7721 = assay: Antiproliferative activity against human SMMC7721 cells
HeLa = assay: Antiproliferative activity against human HeLa cells
PANC-1 = assay: Antiproliferative activity against human PANC1 cells
Ephrin type-B receptor 4 = biological target: T1, Ephrin type-B receptor 4 (Homo sapiens, UniProt P54760); assay: Inhibition of EPHB4 (unknown origin) after 4 hrs by ADP-Glo reagent based luminescent assay
T1 sequence (P54760 whole entry): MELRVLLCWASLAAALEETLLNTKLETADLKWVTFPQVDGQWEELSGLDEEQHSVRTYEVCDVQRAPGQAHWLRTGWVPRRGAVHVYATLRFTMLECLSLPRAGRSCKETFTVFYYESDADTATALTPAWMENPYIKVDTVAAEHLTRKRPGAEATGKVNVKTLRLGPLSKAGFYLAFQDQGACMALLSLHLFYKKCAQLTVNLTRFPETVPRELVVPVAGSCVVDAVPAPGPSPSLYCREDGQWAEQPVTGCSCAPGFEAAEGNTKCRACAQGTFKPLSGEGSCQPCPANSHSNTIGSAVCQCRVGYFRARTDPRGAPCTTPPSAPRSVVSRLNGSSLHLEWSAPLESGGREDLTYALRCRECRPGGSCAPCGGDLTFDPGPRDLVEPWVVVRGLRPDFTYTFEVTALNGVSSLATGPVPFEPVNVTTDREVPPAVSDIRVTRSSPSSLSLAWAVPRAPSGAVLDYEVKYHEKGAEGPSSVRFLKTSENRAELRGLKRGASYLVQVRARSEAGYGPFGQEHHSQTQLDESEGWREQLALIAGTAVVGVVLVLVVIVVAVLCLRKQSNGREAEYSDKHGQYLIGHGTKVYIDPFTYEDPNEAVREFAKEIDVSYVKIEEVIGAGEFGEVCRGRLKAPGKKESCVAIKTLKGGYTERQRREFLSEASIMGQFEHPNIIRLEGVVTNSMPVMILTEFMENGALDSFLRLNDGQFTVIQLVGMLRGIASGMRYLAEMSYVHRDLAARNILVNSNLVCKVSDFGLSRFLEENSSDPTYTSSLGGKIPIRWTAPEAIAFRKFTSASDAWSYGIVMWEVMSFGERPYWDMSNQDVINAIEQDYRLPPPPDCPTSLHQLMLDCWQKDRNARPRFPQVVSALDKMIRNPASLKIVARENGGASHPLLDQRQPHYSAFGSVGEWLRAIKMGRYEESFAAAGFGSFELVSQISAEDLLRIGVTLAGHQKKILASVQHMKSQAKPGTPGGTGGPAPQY

Angiopoietin-1 receptor = Angiopoietin-1 receptor (Homo sapiens, UniProt Q02763); assay: Inhibition of TIE2 (unknown origin) after 4 hrs by ADP-Glo reagent based luminescent assay
Sequence of Angiopoietin-1 receptor (Q02763 whole entry): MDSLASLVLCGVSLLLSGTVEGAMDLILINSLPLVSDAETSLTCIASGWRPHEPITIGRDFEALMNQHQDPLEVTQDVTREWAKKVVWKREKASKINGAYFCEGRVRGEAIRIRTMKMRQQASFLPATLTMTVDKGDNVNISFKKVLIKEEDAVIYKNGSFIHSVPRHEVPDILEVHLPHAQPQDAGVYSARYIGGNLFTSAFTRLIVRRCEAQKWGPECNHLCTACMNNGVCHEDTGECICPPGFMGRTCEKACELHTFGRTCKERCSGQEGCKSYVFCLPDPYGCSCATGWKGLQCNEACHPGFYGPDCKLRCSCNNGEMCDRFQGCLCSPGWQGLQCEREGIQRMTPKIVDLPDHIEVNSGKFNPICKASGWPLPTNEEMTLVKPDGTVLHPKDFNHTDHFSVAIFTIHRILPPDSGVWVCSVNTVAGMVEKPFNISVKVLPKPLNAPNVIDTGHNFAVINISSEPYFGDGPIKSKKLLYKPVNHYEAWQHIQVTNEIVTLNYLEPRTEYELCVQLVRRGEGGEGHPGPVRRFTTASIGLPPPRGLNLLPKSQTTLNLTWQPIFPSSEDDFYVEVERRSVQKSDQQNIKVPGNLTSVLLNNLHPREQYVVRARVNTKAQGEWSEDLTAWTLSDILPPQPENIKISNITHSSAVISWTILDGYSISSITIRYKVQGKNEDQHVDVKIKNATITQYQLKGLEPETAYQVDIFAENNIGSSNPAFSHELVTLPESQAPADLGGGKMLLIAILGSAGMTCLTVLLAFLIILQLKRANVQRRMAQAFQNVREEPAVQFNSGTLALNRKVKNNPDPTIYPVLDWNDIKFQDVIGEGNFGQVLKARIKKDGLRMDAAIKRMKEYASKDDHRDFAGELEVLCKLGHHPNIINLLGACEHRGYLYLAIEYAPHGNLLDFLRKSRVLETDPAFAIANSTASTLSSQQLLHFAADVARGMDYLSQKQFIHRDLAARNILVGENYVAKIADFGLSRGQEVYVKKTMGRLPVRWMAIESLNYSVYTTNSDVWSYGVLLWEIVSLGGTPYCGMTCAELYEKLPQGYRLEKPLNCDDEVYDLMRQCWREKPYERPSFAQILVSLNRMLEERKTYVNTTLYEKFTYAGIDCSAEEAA

| IC50 (Ephrin type-B receptor 4) | SMILES | IC50 (EA.hy 926) | also measured |
| --- | --- | --- | --- |
| – | COc1ccc(-c2ccc(Cn3cc(-c4ccccc4F)nn3)cc2)cn1 | 708000 nM | IC50 [1]: > 1000 nM |
| – | COc1ccc(-c2ccc(Cn3cc(-c4cccc(N)c4)nn3)cc2)cn1 | 14500 nM | IC50 (LoVo): 100 nM; IC50 (A549): 180 nM; IC50 (A-431): 70 nM; IC50 (MCF7): 350 nM; IC50 (SMMC-7721): 240 nM; IC50 (HeLa): 290 nM; IC50 (PANC-1): 490 nM |
| > 1000 nM | FC(F)(F)c1cccc(-c2cn(Cc3ccc(-c4cccnc4)cc3)nn2)c1 | 137000 nM | IC50 [1]: > 1000 nM |
| – | Clc1cccc(-c2cn(Cc3ccc(-c4cccnc4)cc3)nn2)c1 | 431000 nM | – |
| > 1000 nM | FC(F)(F)c1ccc(-c2cn(Cc3ccc(-c4cccnc4)cc3)nn2)cc1 | 170000 nM | IC50 (Angiopoietin-1 receptor): > 1000 nM |
| – | COc1ccc(-c2ccc(Cn3cc(-c4ccc(C)cc4)nn3)cc2)cn1 | 678000 nM | – |
| – | COc1ccc(-c2ccc(Cn3cc(-c4cccc(Cl)c4)nn3)cc2)cn1 | 440000 nM | – |
| – | Fc1ccccc1-c1cn(Cc2ccc(-c3cccnc3)cc2)nn1 | 9280 nM | – |
| – | Nc1cccc(-c2cn(Cc3ccc(-c4cccnc4)cc3)nn2)c1 | 24300 nM | – |
| > 1000 nM | COc1ccc(-c2ccc(Cn3cc(-c4ccccc4)nn3)cc2)cn1 | 110000 nM | IC50 (Angiopoietin-1 receptor): > 1000 nM |
| – | Cc1ccc(-c2cn(Cc3ccc(-c4cccnc4)cc3)nn2)cc1 | 6490 nM | IC50 (Angiopoietin-1 receptor): > 1000 nM |
| > 1000 nM | COc1ccc(-c2ccc(Cn3cc(-c4ccc(C(F)(F)F)cc4)nn3)cc2)cn1 | 122000 nM | – |
| – | c1ccc(-c2cn(Cc3ccc(-c4cccnc4)cc3)nn2)cc1 | 12100 nM | – |
| – | COc1ccc(-c2ccc(Cn3cc(-c4cccc(C)c4)nn3)cc2)cn1 | 43900 nM | IC50 (Angiopoietin-1 receptor): > 1000 nM |
| > 1000 nM | Cc1cccc(-c2cn(Cc3ccc(-c4cccnc4)cc3)nn2)c1 | 134000 nM | – |
| – | CNC(=O)c1cc(Oc2ccc(NC(=O)Nc3ccc(Cl)c(C(F)(F)F)c3)cc2)ccn1 [SORAFENIB] | 11700 nM | IC50 (LoVo): 250 nM; IC50 (A549): 80 nM; IC50 (A-431): 120 nM; IC50 (MCF7): 90 nM; IC50 (SMMC-7721): 300 nM; IC50 (HeLa): 270 nM; IC50 (PANC-1): 150 nM |
